The target in series [1] is T1, Lanosterol 14-alpha demethylase (Aspergillus, UniProt B8NUK6+G4WW85+Q9P8R0).
T1 sequence (B8NUK6 whole entry): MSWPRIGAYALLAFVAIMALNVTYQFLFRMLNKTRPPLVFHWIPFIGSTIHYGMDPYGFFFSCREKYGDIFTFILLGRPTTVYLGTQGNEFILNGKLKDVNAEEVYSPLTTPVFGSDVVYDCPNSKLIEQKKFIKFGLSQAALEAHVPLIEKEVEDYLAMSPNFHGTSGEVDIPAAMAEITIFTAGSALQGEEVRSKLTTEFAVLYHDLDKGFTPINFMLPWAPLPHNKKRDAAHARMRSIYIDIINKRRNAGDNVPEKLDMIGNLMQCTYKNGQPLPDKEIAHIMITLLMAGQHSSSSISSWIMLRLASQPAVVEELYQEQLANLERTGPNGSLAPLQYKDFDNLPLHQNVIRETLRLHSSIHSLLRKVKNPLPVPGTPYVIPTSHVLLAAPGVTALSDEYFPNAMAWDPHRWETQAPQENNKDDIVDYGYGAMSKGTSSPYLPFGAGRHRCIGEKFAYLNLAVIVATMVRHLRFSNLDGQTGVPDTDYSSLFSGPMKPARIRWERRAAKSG
T1 sequence (Q9P8R0 whole entry): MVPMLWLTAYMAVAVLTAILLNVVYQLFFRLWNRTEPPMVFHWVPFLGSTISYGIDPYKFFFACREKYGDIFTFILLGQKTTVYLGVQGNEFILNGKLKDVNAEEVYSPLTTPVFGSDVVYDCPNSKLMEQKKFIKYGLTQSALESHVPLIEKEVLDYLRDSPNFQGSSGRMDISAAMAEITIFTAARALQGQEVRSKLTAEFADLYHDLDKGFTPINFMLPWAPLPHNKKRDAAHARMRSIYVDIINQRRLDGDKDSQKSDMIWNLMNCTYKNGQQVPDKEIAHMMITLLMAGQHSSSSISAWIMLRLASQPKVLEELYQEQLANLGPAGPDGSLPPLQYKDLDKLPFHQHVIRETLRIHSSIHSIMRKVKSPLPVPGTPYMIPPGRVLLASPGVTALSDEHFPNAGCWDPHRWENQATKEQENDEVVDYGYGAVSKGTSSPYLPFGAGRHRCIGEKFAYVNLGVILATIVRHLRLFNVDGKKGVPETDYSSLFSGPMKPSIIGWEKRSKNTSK
T1 sequence (G4WW85 whole entry): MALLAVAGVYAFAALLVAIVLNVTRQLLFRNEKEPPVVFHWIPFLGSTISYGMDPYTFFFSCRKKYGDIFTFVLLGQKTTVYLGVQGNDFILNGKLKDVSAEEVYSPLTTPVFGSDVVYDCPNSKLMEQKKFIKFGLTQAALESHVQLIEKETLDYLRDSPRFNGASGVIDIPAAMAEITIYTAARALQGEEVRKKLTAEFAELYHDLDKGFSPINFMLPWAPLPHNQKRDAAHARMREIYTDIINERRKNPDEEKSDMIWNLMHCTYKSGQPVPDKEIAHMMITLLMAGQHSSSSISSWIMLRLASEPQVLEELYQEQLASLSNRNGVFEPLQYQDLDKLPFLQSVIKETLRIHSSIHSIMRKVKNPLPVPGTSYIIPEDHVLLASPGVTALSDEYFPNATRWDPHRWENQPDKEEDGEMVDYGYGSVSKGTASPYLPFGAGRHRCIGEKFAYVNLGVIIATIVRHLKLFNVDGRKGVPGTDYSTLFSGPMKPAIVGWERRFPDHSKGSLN
Briefly: Binding affinity to Aspergillus fumigatus CYP51.

Series [2] in a line: AUClast in Swiss albino mouse at 5 mg/kg, po measured during 0.5 to 48 hrs post dose by HPLC/MS/MS method. Conditions: in vivo. In kind it is ADME, organism-based. Also noted: dose 5 mg/kg, route oral, time 0 - last.
Series [3] relates to Kidney. Briefly: Drug level in Swiss albino mouse kidney at 5 mg/kg, po after 48 hrs assessed as relative Cmax level relative to plasma drug level by HPLC/MS/MS method. The conditions noted are these: other tissue. Format: ADME, organism-based.
The target of series [4] is Cytochrome P450 2C19, Homo sapiens (UniProt P33261). Briefly: Inhibition of CYP2C19 in human hepatocyte microsomes using omeprazole substrate by HPLC/MS/MS method.
Chain of Cytochrome P450 2C19, Homo sapiens (P33261 whole entry, looked up): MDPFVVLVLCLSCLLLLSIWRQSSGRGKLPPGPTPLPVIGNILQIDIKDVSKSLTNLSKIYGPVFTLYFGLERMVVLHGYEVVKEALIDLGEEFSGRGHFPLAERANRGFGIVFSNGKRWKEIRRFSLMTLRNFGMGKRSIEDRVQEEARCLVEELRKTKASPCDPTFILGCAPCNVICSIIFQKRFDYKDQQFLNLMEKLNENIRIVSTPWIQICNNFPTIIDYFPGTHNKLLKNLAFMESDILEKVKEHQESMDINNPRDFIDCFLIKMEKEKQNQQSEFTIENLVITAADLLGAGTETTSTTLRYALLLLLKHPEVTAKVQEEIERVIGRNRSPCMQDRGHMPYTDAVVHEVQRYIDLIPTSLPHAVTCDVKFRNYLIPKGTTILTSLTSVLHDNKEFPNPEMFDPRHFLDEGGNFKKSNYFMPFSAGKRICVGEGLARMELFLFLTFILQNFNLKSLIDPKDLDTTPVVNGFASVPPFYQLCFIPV
Series [5] relates to Kidney. Briefly: Drug level in Swiss albino mouse kidney at 5 mg/kg, po after 48 hrs assessed as relative AUC (48 hrs) level relative to plasma drug level by HPLC/MS/MS method. Format: ADME, organism-based. The conditions noted are these: other tissue.
A short description of series [6]: Half life in Swiss albino mouse brain at 5 mg/kg, po measured during 0.5 to 48 hrs post dose by HPLC/MS/MS method. In kind it is ADME, organism-based.
Series [7] addresses Lanosterol 14-alpha demethylase (Candida albicans (strain SC5314 / ATCC MYA-2876) (Yeast), UniProt P10613). Briefly: Inhibition of CYP51 in Candida albicans assessed as inhibition of microbe growth incubated for 48 hrs by CLSI M27-A3 guideline based method.
The nature of series [8]: Cmax in Swiss albino mouse at 5 mg/kg, po measured during 0.5 to 48 hrs post dose by HPLC/MS/MS method. In kind it is ADME, organism-based. Details: dose 5 mg/kg, route oral. Conditions: in vivo.

Chain of Lanosterol 14-alpha demethylase (Candida albicans (strain SC5314 / ATCC MYA-2876) (Yeast), UniProt P10613) (P10613 whole entry): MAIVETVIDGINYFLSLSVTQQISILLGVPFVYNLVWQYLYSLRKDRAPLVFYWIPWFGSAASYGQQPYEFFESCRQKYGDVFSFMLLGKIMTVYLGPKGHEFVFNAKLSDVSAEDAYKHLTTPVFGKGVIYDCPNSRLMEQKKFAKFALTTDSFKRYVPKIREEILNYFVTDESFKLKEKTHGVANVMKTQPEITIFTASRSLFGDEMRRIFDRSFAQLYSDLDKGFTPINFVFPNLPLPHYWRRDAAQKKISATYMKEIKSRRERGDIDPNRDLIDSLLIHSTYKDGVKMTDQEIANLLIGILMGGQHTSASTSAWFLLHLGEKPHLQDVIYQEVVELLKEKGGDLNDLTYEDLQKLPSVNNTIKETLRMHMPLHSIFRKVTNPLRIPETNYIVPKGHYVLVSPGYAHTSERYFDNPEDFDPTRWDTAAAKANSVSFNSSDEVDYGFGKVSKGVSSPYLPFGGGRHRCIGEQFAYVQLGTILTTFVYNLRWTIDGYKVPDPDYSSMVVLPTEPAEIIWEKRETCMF

In general, Kd refers to the free concentration of one partner at which half of the binding sites on the other are occupied at equilibrium, for simple one-to-one binding. Read a low Kd as a tighter complex. By AUC(0-t) is commonly meant exposure summed from dosing to a finite time, without extrapolation to infinity. A higher AUC(0-t) goes with more exposure. For orientation: IC50 means the concentration that gives 50% inhibition. A higher IC50 goes with lower potency. By half-life is commonly meant the time in which the quantity being followed falls by half. Low readings indicate fast loss, high ones slow loss. The Cmax is the peak of the concentration-time curve. `N#Cc1ccc(COc2ccc(C#Cc3ccc(C(F)(F)C(O)(Cn4cnnn4)c4ccc(F)cc4F)nc3)cc2)cc1` (single isomer, unassigned; (+)) gave a Kd in series [1] of 0.013 µM. This compound also gave an AUC(0-t) in series [2] of 67000 ng·h/mL. The Drug uptake in the series on Kidney [3] was found to be 270%; in the series on Kidney [5], 268%. For the same compound, in series [4], half-maximal inhibition (IC50) was put at 138 µM. The half-life in series [6] was in the range of 16 to 19 h. For the same compound, in series [7], the MIC50 came out at 7.8 ng/mL. Further, the maximum concentration (Cmax) in series [8] was 2500 ng/mL.

Source of the values: ChEMBL document CHEMBL4052712, “Design and optimization of highly-selective, broad spectrum fungal CYP51 inhibitors” (Bioorg Med Chem Lett, 2017).
